Source: patent US11944605B2, “Rapamycin analogs and uses thereof” (Janssen Pharmaceutica NV, priority 2018, dated 2024)
Converted amounts (≈) assume the structure as drawn.

Legend:
[1] = test system: mTORC1 pathway (pS6K1 T389) in PC3 cells; experiment: Western blot, mTORC1 pathway (pS6K1) in PC3 cells; type: cell-based; conditions: PC3 cells
Method: (§1) Western Blot Based pS6K1 and pAKT Assay at 24 and 48 Hour Timepoints
(§2) 1. Seed six well plate with 500,000 PC3 cells per well and incubate for 20˜24 hour.
(§3) 2. Add compounds into the cell plate. Incubate for 24 to 48 hours.
(§4) 4. Plate is placed on ice and the media is removed via aspiration. The wells are washed with 1 mL of 1× PBS and then fully aspirated.
(§5) 5. 110 μL of 1% Triton Lysis Buffer is added and each well is scraped vigorously.
(§6) 6. Cell homogenates are transferred to 1.5 mL eppendorf tubes on ice and spun down at 4° C. for 10 minutes at 10,000 rpm.
(§7) 9. The membranes were washed 3× with TBS-T with a 5 minute incubation between each wash then incubated with secondary antibody (LiCor IRDye 800 Donkey Anti Rabbit) for at least 30 minutes.
(§8) 10. The membranes were washed 3× with TBS-T with a 5 minute incubation between each wash.
(§9) 11. The gels were then incubated for 5 minutes with PBS at room temperature then imaged using a Li-Cor.
(§10) The methods employed were substantially similar to those described above. Compounds were evaluated in PC3 cells, Jurkat cells, wild-type mouse embryotic fibroblast (MEF) cells, tuberous sclerosis 2 (TSC2) negative (TSC −/−) MEF cells, and tuberous sclerosis 2 (TSC2) positive (TSC +/+) MEF cells. Cells were incubated with compounds of the present invention for various time periods (e.g., 5 minutes, 15 minutes, 30 minutes, 90 minutes, 24 hours, or 48 hours), and evaluated according to known methodologies, such as those herein described.

[2] = test system: mTORC1 pathway in Jurkat cells; experiment: Western blot, mTORC1 pathway in Jurkat cells; type: cell-based; conditions: 24 hrs
Method: as §10

[3] = test system: mTORC1 pathway in wild-type MEF cells; experiment: Western blot, mTORC1 pathway in wild-type MEF cells; type: cell-based, mouse
Method: as §10

[4] = test system: 4E-BP1 phosphorylation in PC3 cells; experiment: Western blot, 4E-BP1 phosphorylation in PC3 cells; type: cell-based; conditions: 24 hours
[5] = test system: mTORC2 pathway (Akt phosphorylation) in PC3 cells; experiment: Western blot, mTORC2 pathway (pAkt) in PC3 cells; type: cell-based; conditions: 24 hours
Method: as §1, §2, §3, §4, §5, §6, §7, §8, §9, §10

[6] = test system: mTORC1 pathway in tuberous sclerosis 2 (TSC2) positive (TSC+/+) MEF cells; experiment: Western blot, mTORC1 pathway in TSC+/+ MEF cells; type: cell-based, mouse
Method: as §10

[7] = test system: 4E-BP1 phosphorylation in TSC+/+ MEF cells; experiment: Western blot, 4E-BP1 phosphorylation in TSC+/+ MEF cells; type: cell-based, mouse; conditions: 24 hours
Method: as §10

IFN-γ production = IFN-γ production in allogenic mixed lymphocyte reaction; type: cell-based
Method: Assessment of Effect on IFN-γ Production in Allogenic Mixed Lymphocyte Reaction
The effect of rapamycin, everolimus, I-29, and I-117 on IFN-y production was evaluated in an allogenic mixed lymphocyte reaction (E.g., Eleftheriadis, T. et al., Int. J. Mol. Med., 37(5): 1412-20 (2016) https://doi.org/10.3892/ijmm.2016.2547).

[8] = test system: mTORC1 pathway in tuberous sclerosis (TSC2) negative (TSC−/−) MEF cells; experiment: Western blot, mTORC1 pathway in TSC−/− MEF cells; type: cell-based, mouse
Method: as §10

mTORC1 over mTORC2 = experiment: mTORC1 selectivity over mTORC2 at 24 hrs (Western blot based pS6K1 and pAKT assay); type: cell-based; conditions: 24 hrs
[9] = test system: pAKT (p-Akt 1/2/3 (Ser473)) in MCF-7 cells; experiment: AlphaLISA Ultra pAKT Assay; type: cell-based; conditions: Homo sapiens, 1.5 h; MCF7 cells, 90 min
[10] = test system: mTORC2 (Akt phosphorylation) in TSC+/+ MEF cells; experiment: Western blot, mTORC2 pathway (pAkt) in TSC+/+ MEF cells; type: cell-based, mouse; conditions: 24 hours
Method: as §10

[11] = test system: pS6K1 (p-p70 S6 Kinase (Thr389)) in MCF-7 cells; experiment: AlphaLISA Ultra pS6K1 Assay; type: cell-based; conditions: Homo sapiens, 1.5 h; MCF7 cells, 90 min
Outline: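 AlphaLISA Ultra read-out (acceptor beads 2 h, then donor beads 2 h) on thawed lysates of MCF-7 cells. Cells had 20–24 h after seeding and a 2 h medium change, then 90 min of compound exposure at 0.5% final DMSO, with lysates stored at −80 °C.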

[12] = Solubility in 100 mM phosphate buffer (pH 7.4); type: physicochemical; conditions: pH 7.4, aqueous buffer
Source text: The compound numbers correspond to the compound numbers in Table 1.

SMILES | inhibition of the mTORC1 pathway ([1]; 90 minutes) | inhibition of the mTORC1 pathway ([1]; 24 hours) | inhibition of the mTORC1 pathway [2] | inhibition of the mTORC1 pathway ([3]; 90 minutes) | inhibition of the mTORC1 pathway ([3]; 24 hours) | inhibition of 4E-BP1 phosphorylation [4] | inhibition of mTORC2 (Akt phosphorylation) [5] | inhibition of the mTORC1 pathway ([6]; 90 minutes) | inhibition of the mTORC1 pathway ([6]; 24 hours) | inhibition of 4E-BP1 phosphorylation [7] | inhibition of IFN-γ production (IFN-γ production) | IC50 (IFN-γ production; read-out: IFN-γ Inhibition IC50s) [nM] | inhibition of the mTORC1 pathway ([8]; 90 minutes) | inhibition of the mTORC1 pathway ([8]; 24 hours) | mTORC1 selective @ 24 hrs (mTORC1 over mTORC2) | IC50 [9] [nM] | inhibition of mTORC2 (Akt phosphorylation) [10] | IC50 [11] [nM] | solubility [12] [µM]
CO[C@H]1C[C@@H]2CC[C@@H](C)[C@@](O)(O2)C(=O)C(=O)N2CCCC[C@H]2C(=O)O[C@H]([C@H](C)C[C@@H]2CC[C@@H](OCCO)[C@H](OC)C2)CC(=O)[C@H](C)/C=C(\C)[C@@H](O)[C@@H](OC)C(=O)[C@H](C)C[C@H](C)/C=C/C=C/C=C/1C [Everolimus, everolimus, reference compound] | strong inhibition | strong inhibition | strong inhibition | strong inhibition | strong inhibition | no inhibition | dose dependent inhibition | strong inhibition | strong inhibition | no inhibition | significantly inhibited | 15.2 | strong inhibition | strong inhibition |  |  |  |  | 
COCCOCCOC1C[C@@H]2CC[C@@H](C)[C@@](O)(O2)C(=O)C(=O)N2CCCC[C@H]2C(=O)O[C@H]([C@H](C)C[C@@H]2CC[C@@H](OCCO)[C@H](OC)C2)CC(=O)[C@H](C)/C=C(\C)[C@@H](O)[C@@H](OC)C(=O)[C@H](C)C[C@H](C)/C=C/C=C/C=C/1C (stereo partly drawn) [I-2] |  | strong inhibition |  |  |  | no inhibition | do not inhibit |  | moderate concentration dependent inhibition |  |  |  |  | strong inhibition | YES | ≥ 100 | do not inhibit | 0.1 to 1 | 30 to 60 (≈ 31.4 to 62.8 µg/mL)
CO[C@@H]1C[C@H](C[C@@H](C)[C@@H]2CC(=O)[C@H](C)/C=C(\C)[C@@H](O)[C@@H](OC)C(=O)[C@H](C)C[C@H](C)/C=C/C=C/C=C(\C)[C@@H](OCCOCCO)C[C@@H]3CC[C@@H](C)[C@@](O)(O3)C(=O)C(=O)N3CCCC[C@H]3C(=O)O2)CC[C@H]1O [I-20] |  |  |  |  |  |  |  |  | moderate concentration dependent inhibition |  |  |  |  |  | YES | ≥ 100 | do not inhibit | 0.1 to 1 | 30 to 60 (≈ 29.6 to 59.3 µg/mL)
